The values that follow come from patent publication US12383551B2, “Methods and compositions for maintaining opioid efficacy in the treatment of pain” (East Carolina University, priority 2017, dated 2025).

One data set deals with sham or SCI animals. The experiment in a line: Conditioned Place Preference (CPP), addictive potential. As to conditions: for CPP to morphine: added to morphine at either dose (1.0 or 2.5 mg/kg), sham or SCI animals.
The test system of a further data set is SCI animals. The experiment in a line: Mechanical pain thresholds / analgesia in animals with spinal cord injury (contusion model). Type of data set: in vivo, Long-Evans rats. As to conditions: FIG. 2 Panel B. The protocol:
(§1) Methods: 55 female, Long-Evans rats were tested for mechanical thresholds prior to receiving a spinal contusion (SCI) or sham surgery. Mechanical pain thresholds were measured 21-27 days post-surgery under the following conditions: Morphine alone (1.0 or 2.5 mg/kg); Morphine (1.0 or 2.5 mg/kg)+0.1 mg/kg Pramipexole (PRAM; D3R agonist); Morphine (2.5 mg/kg)+0.1 mg/kg SCH23390 (SCH: D1R antagonist); 0.1 mg/kg Pramipexole alone; 0.1 mg/kg SCH23390 alone. Conditioned Place Preference (CPP) to each drug combination was assessed to determine the addictive potential of that specific combination.
(§2) Mechanical thresholds were assessed in 3-5 month old female Long-Evans rats before and ˜21 days after a mild, traumatic SCI (contusion model). Thresholds were re-assessed after i.p. injection of: Morphine 1.0 mg/kg with and without 0.1 mg/kg pramipexole (PRAM) or Morphine 2.5 mg/kg with and without 0.1 mg/kg PRAM. Conditioned place preference was performed under each drug condition (5 days alternating drug/vehicle pairing, with testing on day 6). Western blotting determined expression of D3R, D1R and u-opioid receptor (MOR) in the lumbar spinal cord.

Data set [1] deals with rat model of chronic neuropathic pain. The experiment in a line: Pain withdrawal responses in a rat model of chronic neuropathic pain (pilot studies). Format: in vivo. The conditions noted are these: low-dose morphine.
A further data set concerns sham animals. The experiment in a line: Mechanical pain thresholds / analgesia in sham (healthy control) animals. Type of data set: in vivo, Long-Evans rats. The conditions noted are these: FIG. 2 Panel A, acute treatment. The procedure:
as §1, §2

Description for sham or SCI animals: Methods: 55 female, Long-Evans rats were tested for mechanical thresholds prior to receiving a spinal contusion (SCI) or sham surgery. […] Conditioned Place Preference (CPP) to each drug combination was assessed to determine the addictive potential of that specific combination.
Mechanical thresholds were assessed in 3-5 month old female Long-Evans rats before and ˜21 days after a mild, traumatic SCI (contusion model). […] Conditioned place preference was performed under each drug condition (5 days alternating drug/vehicle pairing, with testing on day 6).

As to `CCCN[C@H]1CCc2nc(N)sc2C1` [PRAM, pramipexole], the CPP to morphine result with sham or SCI animals is reported as “Neither PRAM nor SCH exacerbated CPP to morphine”.

For `CN1CCc2cc(Cl)c(O)cc2[C@@H](c2ccccc2)C1` [SCH, SCH23390], the CPP to morphine entry with sham or SCI animals is “Neither PRAM nor SCH exacerbated CPP to morphine”.

For the compound `CN1CC[C@]23c4c5ccc(O)c4O[C@H]2[C@@H](O)C=C[C@H]3[C@H]1C5` [morphine], the analgesia result in the data set with SCI animals is listed as “neither morphine nor PRAM have any analgesic effect”; in the data set with sham animals, “improves analgesia significantly”. Also, the “analgesic effect after long-term application” value in the data set with animals (FIG. 3, long-term application, 2 weeks) is on record as “complete loss of analgesic effect after 2 weeks”. Moreover, in the data set with animals (parallel preliminary studies), the “development of morphine tolerance” value is given as “became tolerant”. The “preference for the drug-paired chamber” value in the data set with sham or SCI animals (FIG. 4) is listed as “induces preference for the drug-paired chamber”. The “modulating pain withdrawal responses / opioid efficacy” value in data set [1] is “became ineffective”.
